From publication PMC10650714, “Double Attack to Oxidative Stress in Neurodegenerative Disorders: MAO-B and Nrf2 as Elected Targets” (Molecules, 2023) come the findings set out here.

For orientation: melting point means the temperature of the solid-liquid transition.

For data set [1], the system named is SH-SY5Y human neuroblastoma cells. Nature of the data set: Cell viability, MTT assay. It counts as cell-based. The note with it: 0.5 to 50 μM, 24 h. As to the method:
To define the concentration range to use in the in vitro experimental settings, the cytotoxicity of compounds 1–5 was evaluated in SH-SY5Y human neuroblastoma cells, in comparison with CAPE, the reference compound for Nrf2 activation (Figure 5). Cells were treated with compounds at concentrations ranging from 0.5 to 50 μM for 24 h and cell viability was evaluated via MTT assay. All compounds were well tolerated at each concentration, resulting in no or very low reduction in cell viability.
MTT assay, based on the mitochondrial dehydrogenase activity that reduces 3-(4,5-dimethylthiazol-2-yl)-2,5-diphenyl-tetrazolium bromide (MTT, Sigma, St Louis, MO, USA) is one of the standard assays used to measure the cellular metabolic activity as an indicator of cell viability, proliferation and cytotoxicity in a quantitative colorimetric assay. At day 0, SH-SY5Y cells were plated at a density of 2.5 × 10^4 viable cells per well in 96-well plates. After treatment, according to the experimental setting, cells were exposed to an MTT solution in serum-free medium (1 mg/mL). Following 4 h of incubation with MTT and treatment with SDS for 24 h, cell viability reduction was quantified by using a Synergy HT multidetection microplate reader (Bio-Tek).
A general note: Tetrazolium assays rely on reduction of a dye to a coloured formazan, in cell work by metabolically active cells.

The next data set concerns the target T1, recombinant hMAO-B (Homo sapiens, UniProt P27338).
T1 construct: purchased Fluka-Sigma-Aldrich s.r.l; (Italy); host or cells: Baculovirus infected BT1 cells
T1 sequence (P27338 1-520): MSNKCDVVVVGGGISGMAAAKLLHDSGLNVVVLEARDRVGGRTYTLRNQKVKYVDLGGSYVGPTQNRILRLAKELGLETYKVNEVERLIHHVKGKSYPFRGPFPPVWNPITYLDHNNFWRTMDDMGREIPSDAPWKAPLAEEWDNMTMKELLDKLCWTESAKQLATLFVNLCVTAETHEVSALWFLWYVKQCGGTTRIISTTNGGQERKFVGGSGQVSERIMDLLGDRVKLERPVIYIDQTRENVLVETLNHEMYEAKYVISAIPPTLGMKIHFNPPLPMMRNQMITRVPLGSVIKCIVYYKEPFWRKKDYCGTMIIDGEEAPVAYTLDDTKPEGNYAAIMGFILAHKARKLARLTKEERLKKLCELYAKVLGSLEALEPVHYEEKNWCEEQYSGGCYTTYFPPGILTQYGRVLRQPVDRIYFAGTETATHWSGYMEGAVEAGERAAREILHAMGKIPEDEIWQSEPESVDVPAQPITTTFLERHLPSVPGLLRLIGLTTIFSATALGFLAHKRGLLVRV
Nature of the data set: Time-dependent inhibition study on hMAO-B. In kind it is biochemical. The settings on record: pre-incubation 0 to about 20 min, 5 and 20 µM. The procedure:
Time-dependent inhibition studies. The time-dependent inactivation by 2 was performed as previously reported. In detail, recombinant hMAO-B was pre-incubated in the K/Pi buffer for periods from 0 to about 20 min, at 37 °C in the absence (control sample) and in the presence of compound 2 (5 and 20 µM). After various pre-incubation times (at least 5 times after mixing of enzyme and inhibitor), the residual enzyme activity was determined: an aliquot of sample was withdrawn and diluted in the assay buffer (50-fold dilution) and then, the substrate was added under a “saturating” condition (Kyn = 300 µM).

SMILES strings stand for the structures.

With `O=C(/C=C/c1ccc(O)c(O)c1)Oc1ccc(CC2SC(=O)NC2=O)cc1` (stereo not drawn) [Compound 2, 4-((2,4-Dioxothiazolidin-5-yl)methyl)phenyl (E)-3-(3,4-Dihydroxyphenyl)acrylate], the melting point is 150 to 151 °C. In addition, in data set [1], the “cell viability / cytotoxicity” value was “not cytotoxic”. Moreover, the “time-dependent inhibition / inactivation of hMAO-B” value on recombinant hMAO-B was “no inactivation and no time-dependent inhibition”.
